Molecular target: E3 ubiquitin-protein ligase Mdm2 (Homo sapiens, UniProt Q00987)
Assay: Binding affinity to RED dye fluorescently labelled full length human recombinant GST-tagged MDM2 expressed in Escherichia coli BL21 cells assessed as dissociation constant incubated for 60 mins in dark by Microscale Thermophoresis assay

Chain of E3 ubiquitin-protein ligase Mdm2 (Q00987 whole entry): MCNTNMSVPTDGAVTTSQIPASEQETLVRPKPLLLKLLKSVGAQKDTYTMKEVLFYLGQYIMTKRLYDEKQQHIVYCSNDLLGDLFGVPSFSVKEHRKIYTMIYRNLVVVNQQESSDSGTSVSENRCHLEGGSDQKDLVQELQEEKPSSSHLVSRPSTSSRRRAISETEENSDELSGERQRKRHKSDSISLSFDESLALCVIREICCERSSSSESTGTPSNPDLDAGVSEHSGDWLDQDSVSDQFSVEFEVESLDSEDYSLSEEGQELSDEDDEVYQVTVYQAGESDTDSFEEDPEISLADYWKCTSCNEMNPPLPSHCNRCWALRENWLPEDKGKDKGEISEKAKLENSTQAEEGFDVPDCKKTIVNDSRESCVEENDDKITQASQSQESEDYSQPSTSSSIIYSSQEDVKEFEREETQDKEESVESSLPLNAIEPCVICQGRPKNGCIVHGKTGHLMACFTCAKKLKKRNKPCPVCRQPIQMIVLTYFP

Kd [µM] | Substance
19.2 | H-KVFIA-OH
> 1000 | H-VAIKF-OH
